According to BindingDB's records for doi:10.1016/S0960-894X(01)80746-0 (1993):

Assay: Tested for inhibitory activity of compound against Phospholipase A2 (PLA2)

| IC50 [µM] | SMILES |
| --- | --- |
| 5.3 | CCCCCCCCCCCC(=O)N[C@H](CCCC)COP(=O)([O-])OCC[N+](C)(C)C [(2-{[2-((S)-Dodecanoylamino)-hexyloxy]-hydroxy-phosphoryloxy}-ethyl)-trimethyl-ammonium] |
| 31 | CCCCCCCCCCCC(=O)N1C(=O)OC[C@@H]1COP(=O)([O-])OCC[N+](C)(C)C [{2-[((R)-3-Dodecanoyl-2-oxo-oxazolidin-4-ylmethoxy)-hydroxy-phosphoryloxy]-ethyl}-trimethyl-ammonium] |
